Molecular target: T1, RSV A2_F (Human respiratory syncytial virus A, UniProt P03420)
T1 construct: expressed in transfected cells; host or cells: HEK 293T/17
Experiment: RSV fusion assay (luciferase reporter, HEK 293T/17 cells transfected with A2_F)
Format: cell-based
Conditions: 24 hr
Description: HEK 293T/17 cells were cultured in T75 culture flasks in Dulbecco's medium (DMEM) containing 10% FBS and 1× Penicillin-Streptomycin (Pen/Strep) and warmed to 37° C. prior to use. The cells were passaged by first washing briefly with 3 ml phosphate buffered saline (PBS) followed by a 4 min incubation with […] at 37° C. 7 ml media was then added to the flask and the cells dispersed via pipetting (×3) against the bottom of the flask. Two further T75 flasks were each seeded with 2×10^6 cells in 15 ml fresh media.
Cells were seeded on the T75 plates at the same density as on the 6-well plates the area of a T75 flask and one 1.75 cm radius well from a 6-well plate were compared. 7.79×2 ml of 3×10^5 cells ml^−1 was used to seed a single T75 flask.
HEK cells were removed from a T75 flask as described above. The cells were counted and diluted to 3×10^5 cells/ml in fresh media. Two T75 flasks were each seeded with 15.58 ml diluted cells.
The plasmid DNA (for pFR-Luc and pcDNA3.1_Gal4/NFκB) to be transfected into the HEK cells was first prepared in serum free media (DMEM+Pen/Strep) containing the transfection reagent Fugene 6 (Promega). Transfections were set up as follows (Luc=pFR_Luc, Gal4=pcDNA3.1+_Gal4/NFκB, A2_F=pcDNA3.1+_A2_F)
Serum free media was placed in a 1.5 ml eppendorf tube then the fugene 6 was added into the media. The tube was vortexed for 1 s before being incubated at RT for 5 min. The plasmid DNA was then added to the tube, vortexed for 1 s, then incubated at RT for 15 min
The transfection reagents were then added to the appropriate T75 flask by tipping the flask on end and adding the reagents directly to the media already in the flask. The flask was then tipped on its back so the media could be mixed thoroughly whilst not disturbing the cells before placing the flask the right way up and incubating overnight at 37° C. and 5% CO2.
Compounds were diluted (in a polypropylene round-bottomed 96 well plate) 1:3 in a twelve point dilution curve to give top [final] of either 3.3 μM, 1 μM, 500 nM 200 nM or 100 nM. The Control compound was always run at a concentration of 100 nM.
The cells were then counted and diluted to 4×10^5 cells/ml in fresh media. 50 μl of transfection population 1 cells were added to all wells of the assay plates. 100 μl diluted compound (2 rows per compound), standard curve (one row) and controls (100 nM RV (100% inhibition, four wells), DMSO (0% inhibition, eight wells)) were added to the appropriate wells. 50 μl of the diluted (4×10^5 cells/ml) transfection population 2 cells when then added to all wells.
The plates were then incubated for 24 hr at 37° C. and 5% CO2
Buffers were prepared for the luciferase assay (20 mM tricine, 10 mM MgSO4, 1 mM EDTA, 10 mM DTT) and lysis (25 mM tris-phosphate, 8 mM MgCl2, 1 mM DTT, 1% Triton X-100, 15% glycerol) and stored at −20° C.
Luminescence was measured as described:
Media was discarded into Virkon and the plates washed with 100 ul PBS per well. 20 ul/well of lysis buffer was added to each well and incubated shaking for 5 min at RT. Luciferin was added to LAAB at a dilution of 1:50 to give a working luciferin buffer. 100 μl working luciferin buffer was added to each well and luminescence was measured immediately. […]

[1] = Fusion activity IC50 μM, HEK 293T/17 cells
[2] = Fusion activity PIC50, HEK 293T/17 cells

T1 sequence (P03420 137-574): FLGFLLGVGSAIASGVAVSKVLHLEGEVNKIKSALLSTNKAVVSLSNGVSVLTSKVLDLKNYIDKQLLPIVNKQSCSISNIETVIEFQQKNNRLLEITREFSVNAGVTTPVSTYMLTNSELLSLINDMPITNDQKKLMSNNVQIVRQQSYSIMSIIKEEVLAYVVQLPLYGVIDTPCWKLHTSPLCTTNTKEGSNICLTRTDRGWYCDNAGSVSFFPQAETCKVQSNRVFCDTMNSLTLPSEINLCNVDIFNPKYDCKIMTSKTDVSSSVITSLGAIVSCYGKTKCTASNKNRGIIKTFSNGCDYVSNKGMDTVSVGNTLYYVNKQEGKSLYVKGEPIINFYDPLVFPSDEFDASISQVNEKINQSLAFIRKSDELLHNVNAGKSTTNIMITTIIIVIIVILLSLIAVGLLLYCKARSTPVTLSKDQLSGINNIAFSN
T1 sequence (P03420 26-109): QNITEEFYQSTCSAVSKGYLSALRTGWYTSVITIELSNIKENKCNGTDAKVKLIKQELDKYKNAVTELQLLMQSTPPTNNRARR

| Structure (SMILES) | IC50 [1] | IC50 [2] |
| --- | --- | --- |
| CC(=O)N1CCN(c2nc(N3CCC(N)C3)ncc2CN2C(=O)C3(CC3)c3ccc(F)cc32)CC1 (stereo not shown) [Compound 17, 1′-{[4-(4-Acetylpiperazin-1-yl)-2-(3-aminopyrrolidin-1-yl)pyrimidin-5-yl]methyl}-6′-fluoro-1′,2′-dihydrospiro[cyclopropane-1,3′-indole]-2′-one] | 5.46 µM |  |
| CC(C)CNc1nc(N2CCC(CN)CC2)ncc1CN1C(=O)C2(CC2)c2ccc(F)cc21 [Compound 6] | 5.22 µM |  |
| NC1CCN(c2ncc(CN3C(=O)C4(CC4)c4ccc(F)cc43)c(NCCCCO)n2)CC1 [Compound 24, 1′-{[2-(4-Aminopiperidin-1-yl)-4-[(4-hydroxybutyl)amino]pyrimidin-5-yl]methyl}-6′-fluoro-1′,2′-dihydrospiro[cyclopropane-1,3′-indole]-2′-one] | 0.695 µM |  |
| CC(C)CNc1nc(N2CCOCC2)ncc1CN1C(=O)C2(CC2)c2ccc(F)cc21 [Compound 8, 6′-Fluoro-1′-((4-(isobutylamino)-2-morpholinopyrimidin-5-yl)methyl)spiro[cyclopropane-1,3′-indolin]-2′-one] | 8.53 µM |  |
| NC1CCN(c2ncc(CN3C(=O)C4(CC4)c4ccc(F)cc43)c(N3CCOCC3)n2)C1 (stereo not shown) [Compound 9, 1′-((2-(3-Aminopyrrolidin-1-yl)-4-morpholinopyrimidin-5-yl)methyl)-6′-fluorospiro[cyclopropane-1,3′-indolin]-2′-one] | 3.66 µM |  |
| NC1CCN(c2ncc(CN3C(=O)C4(CC4)c4ccc(F)cc43)c(C#CCCCO)n2)C1 (stereo not shown) [Compound 21, 1′-{[2-(3-Aminopyrrolidin-1-yl)-4-(5-hydroxypent-1-yn-1-yl)pyrimidin-5-yl]methyl}-6′-fluoro-1′,2′-dihydrospiro[cyclopropane-1,3′-indole]-2′-one] |  | 25.1 µM |
| CS(=O)(=O)N1CCN(c2nc(N3CCC(N)C3)ncc2CN2C(=O)C3(CC3)c3ccc(F)cc32)CC1 (stereo not shown) [Compound 14, 1′-{[2-(3-Aminopyrrolidin-1-yl)-4-(4-methanesulfonylpiperazin-1-yl)pyrimidin-5-yl]methyl}-6′-fluoro-1′,2′ dihydrospiro[cyclopropane-1,3′-indole]-2′-one] | 1.2 µM |  |
| NC1CCN(c2ncc(CN3C(=O)C4(CC4)c4ccc(F)cc43)c(NCC3CCOCC3)n2)C1 (stereo not shown) [Compound 23, 1′-{[2-(3-Aminopyrrolidin-1-yl)-4-{[(oxan-4-yl)methyl]amino}pyrimidin-5-yl]methyl}-6′-fluoro-1′,2′-dihydrospiro[cyclopropane-1,3′-indole]-2′-one] | 0.451 µM |  |
| NC1CCN(c2ncc(CN3C(=O)C4(CC4)c4ccc(F)cc43)c(SCCCCO)n2)C1 (stereo not shown) [Compound 16, 1′-{[2-(3-Aminopyrrolidin-1-yl)-4-[(4-hydroxybutyl)sulfanyl]pyrimidin-5-yl]methyl}-6′-fluoro-1′,2′-dihydrospiro[cyclopropane-1,3′-indole]-2′-one] | 2.79 µM | 2.75 µM |
| COCCCNc1nc(N2CCC(N)C2)ncc1CN1C(=O)C2(CC2)c2ccc(F)cc21 (stereo not shown) [Compound 11, 1′-((2-(3-Aminopyrrolidin-1-yl)-4-((3-methoxypropyl)amino)pyrimidin-5-yl)methyl)-6′-fluorospiro[cyclopropane-1,3′-indolin]-2′-one] | 0.424 µM |  |
| NC1CCN(c2ncc(CN3C(=O)C4(CC4)c4ccc(F)cc43)c(OCCCF)n2)C1 (stereo not shown) [Compound 22, 1′-{[2-(3-Aminopyrrolidin-1-yl)-4-(3-fluoropropoxy)pyrimidin-5-yl]methyl}-6′-fluoro-1′,2′-dihydrospiro[cyclopropane-1,3′-indole]-2′-one] | 0.951 µM |  |
| NC1CCN(c2ncc(CN3C(=O)C4(CC4)c4ccc(F)cc43)c(NCCN3CCOCC3)n2)C1 (stereo not shown) [Compound 3, 1′-((2-(3-Aminopyrrolidin-1-yl)-4-((2-morpholinoethyl)amino)pyrimidin-5-yl)methyl)-6′-fluorospiro[cyclopropane-1,3′-indolin]-2′-one] | 4.18 µM |  |

— patent US10603319B2, “Pyrimidine derivatives and their use in treating or preventing a respiratory syncytial virus infection” (REVIRAL LIMITED, priority 2016, dated 2020)
